Results published in patent publication US10196417B2, “Baicalin magnesium compound and its preparation method and application” (CHENGDE MEDICAL UNIVERSITY, priority 2016, dated 2019).
Marks after values point to notes of the source that are not given here.

Columns and labels:
[1] = test system: mice with acute liver injury induced by D-galactose; experiment: Protection against liver injury (D-galactose-induced acute liver injury); type: in vivo; conditions: intragastric, 10 mg/kg baicalin or equivalent, 5 days, D-galactose 0.5 g/kg i.p. on day 4
Procedure: 40 healthy mice were randomly divided into 4 groups, a normal group, a model group, a baicalin group and a baicalin magnesium group. Mice in the baicalin group were administrated with baicalin at a dose of 10 mg/kg, and mice in the baicalin magnesium group were administrated with baicalin magnesium at a dose equivalent to 10 mg/kg of baicalin. Mice in the normal group and the model group were intragastrically administrated with the same volume of normal saline for 5 days. On the fourth day, mice in the model group and the administration groups were intraperitoneally injected with 0.5 g/kg of D-galactose, and mice in the normal group were intraperitoneally injected with the same volume of normal saline. The activities of ALT, AST, SOD and GSH-Px in the serum and the content of MDA were detected. Variance analysis was performed by SPSS-19.0 statistical software.

[2] = test system: mice with cerebral ischemia; experiment: Learning and memory function in mice with cerebral ischemia (water maze test); type: in vivo; conditions: i.p. 12.5 mg/kg baicalin or equivalent for 12 days after carotid clipping 20 min
Procedure: 80 healthy mice were randomly divided into 4 groups each having 20 mice, a model group, a sham-operation group, a baicalin group and a baicalin magnesium group. For the model group, mice were intraperitoneally injected with 1% of pentobarbital sodium for anesthesia, and then the left and right common carotid arteries were exposed and separated. The left and right arteries were immediately clipped with a vessel clamp for 20 minutes. The vessel clamp then were released; arteries were sutured; and the mice were put back in the cage for breeding. For the sham-operation group, the left and right common carotid arteries were exposed by the same method as above but without clipping. The left and right arteries were sutured, and the mice were put back in the cage for breeding. For the baicalin group, the operation was the same as that for the model group, and on the second day after the operation the mice were intraperitoneally injected with 12.5 mg/kg of baicalin for successive 12 days. For the baicalin magnesium group, the operation was the same as that for the model group, and on the second day after the operation the mice were intraperitoneally injected with baicalin magnesium (at a dose equivalent to 12.5 mg/kg of baicalin) for successive 12 days. The mice in the sham-operation group and the model group were administrated with the same volume of normal saline. Water Maze Test: a circular water tank for test was 120 cm in diameter and 60 cm in height; a cylindrical platform was 10 cm in diameter and 40 cm in height; and an interior of the circular water tank was black. A camera connected to a display was provided to record the movement of mice. During the test, the water depth was 12 cm, and the water temperature was (25±2) ° C. All space signs around the maze remained unchanged throughout the test. Water Maze Test for Memory: on the day before the beginning of the test, each of mice were familiar with the water environment in the maze for 2 minutes. The mice were randomly placed in water close to walls of maze from four different quadrants (North, West, South and East, in one period of time), and the time from the mice entering water to climbing on the platform was recorded as an escape latency. […] The mice were continuously trained for 15 days at a frequency of two times of training per day. Each group of animals was subjected to a water maze test in turn. The path on the first day had two blind ends; the path on the second day had three blind ends; and the path on the third day, the fourth day and the fifth day had four blind ends. The mice were placed in water toward the walls, and the time from the mice entering water to arriving at the platform (latency) and the number of entering the blind ends were recorded. […]

[3] = test system: streptozotocin-induced diabetes rats (high-fat diet); experiment: Antidiabetic effect: blood glucose in streptozotocin-induced diabetes; type: in vivo, SD male rats; conditions: 80 mg/kg baicalin or equivalent intragastric daily
Procedure: Healthy SD male rats aged 6 to 8 weeks were randomly divided into 4 groups, a high-fat diet control group, a diabetes control group, a baicalin treatment group and a baicalin magnesium treatment group. The rats were raised for 1 week in advance. In the second week, all rats were fed with high-fat diet. After six weeks, the rats were fasted but with water for 12 hours. For the diabetes control group, the baicalin treatment group and the baicalin magnesium treatment group, rats were administrated by tail vein injection with 45 mg/kg of streptozotocin prepared from citrate buffer solution (pH=4.5). After 3 to 7 days, the fasting blood glucose was measured. The blood glucose level greater than 13 mmol/L was a criterion for the successful diabetes rate model. The rats in the high-fat diet control group were administrated by tail vein injection with the citrate buffer solution. After the model was built, the rats were intragastrically administrated in the morning every day. The rats in the baicalin group were administrated with baicalin at a dose of 80 mg/kg; the rates in the […] were administrated with baicalin magnesium at a dose equivalent to 80 mg/kg of baicalin; and the rats in the diabetes model group and the high-fat diet control group were intragastrically administrated the same volume of solvent once every day and for successive 6 weeks. After the molding and the administration, the blood glucose was measured in the third week and the sixth week. Single-factor variance analysis was performed on data by SPSS19.0 statistical software, and P<0.05 was of statistical significance.

[4] = Pharmacokinetic experiments (no data given); type: in vivo; conditions: in words only
[5] = 0 (after the molding, start of administration)

| Structure (SMILES) | ALT (serum) [1] | AST (serum) [1] | GSH-Px (serum) [1] | MDA (serum) [1] | SOD (serum) [1] | Escape Latency [2] | Number of Errors [2] | Blood Glucose [3, 5] | Blood Glucose ([3]; 3 weeks) | Blood Glucose ([3]; 6 weeks) | Adsorption rate compared to baicalin [4] |
| --- | --- | --- | --- | --- | --- | --- | --- | --- | --- | --- | --- |
| O=C(O)C1O[C@@H](Oc2cc3oc(-c4ccccc4)cc(=O)c3c(O)c2O)C(O)[C@@H](O)[C@@H]1O (stereo partly drawn) [Baicalin Magnesium, baicalin magnesium] | 165.1 ± 8.7*^Δ U/L | 139.8 ± 13.7*^Δ U/L | 11.8 ± 0.5*^Δ U/L | 2.1 ± 0.3*^Δ nmol/L | 48.2 ± 2.9 U/L | 26.54 ± 8.34*^Δ s | 3.82 ± 2.12*^Δ | 22.32 ± 2.23 mmol/L | 19.46 ± 3.59*^Δ# mmol/L | 17.58 ± 2.6*^Δ# mmol/L | faster adsorption rate |
| O=C(O)[C@H]1O[C@@H](Oc2cc3oc(-c4ccccc4)cc(=O)c3c(O)c2O)[C@H](O)[C@@H](O)[C@@H]1O [Baicalin] | 191.4 ± 19.4 U/L | 168.5 ± 11.9 U/L | 9.8 ± 0.9 U/L | 3.1 ± 0.4 nmol/L | 45.2 ± 2.9 U/L | 38.88 ± 11.99 s | 4.56 ± 3.78 | 23.54 ± 2.5 mmol/L | 21.45 ± 2.6 mmol/L | 20.14 ± 2.6 mmol/L |  |
